{"source": "patent US20090124650A1", "about": "(priority 2007, published 2009)", "key": {"[1]": {"settings": "in vivo; cited from earlier work"}, "[2]": {"test": "Study 5: controlled release 40 mg vs immediate release 4x10 mg, fed and fasting", "type": "in vivo, human", "settings": "food effect", "text": "Subjects randomized to Treatment 5A and Treatment 5C, as described below, were in a fasted state following a 10-hour overnight fast. […] There was a 14-day washout interval between the four dose administrations. The subjects were confined to the clinic during each study period. Subject assigned to receive Treatment 5A and Treatment 5B were discharged from the clinic on Day 3 following the 48-hour procedures, and subjects assigned to receive Treatment 5C and Treatment 5D were discharged from the clinic on Day 2 following the 36-hour procedures. On Day 1 of each study period the subjects received one of four treatments:\nBlood samples (7 ml) were collected during each study period at the 0 hour (predose), and at 0.25, 0.5, 0.75, 1.0, 1.5, 2, 3, 4, 5, 6, 8, 10, 12, 24, 36, 48, 60, and 72 hours post-dose (19 samples) for subjects randomized to all Treatments."}, "[3]": {"test": "In vivo ethanol study: oxymorphone 40 mg ER tablets with 240 mL of 40%, 20%, 4%, 0% ethanol", "set-up": "species or system human", "description": "The study design was a randomized, open-label, single-dose, four-period crossover in 28 subjects. […] Subjects were fasted overnight for at least 8 hours prior to dosing. Water was allowed ad lib except from 1 hour before dosing until 1 hour after dosing. A standardized meal was served 4 hours and 10 hours after dosing.\nA) 40% ethanol B) 20% ethanol C) 4% ethanol D) 0% ethanol\nSerial blood samples were obtained from 0 to 48 hours after dosing. Plasma samples were assayed for oxymorphone. Pharmacokinetic parameters for oxymorphone were determined using non-compartmental methods. […] Any treatment in which a subject vomited during the dosing interval (0-12 hours) was excluded from the primary pharmacokinetic analysis."}, "[4]": {"test": "Bioavailability in elderly, hepatically and renally impaired patients"}, "[5]": {"settings": "elderly patients (65 years old or older)"}}}
{"smiles": "CN1CC[C@]23c4c5ccc(O)c4O[C@H]2C(=O)CC[C@@]3(O)[C@H]1C5", "note": "[oxymorphone, 14-hydroxydihydromorphinone]", "values": [{"measurement": "oral bioavailability", "setting": "[1]", "value": "about 10%"}, {"measurement": "Cmax greater with a meal than without", "setting": "[2]", "value": 50, "unit": "%"}, {"measurement": "AUC change with ethanol", "setting": "[3]; 240 mL of 20% or 4% ethanol concomitantly", "value": "essentially unchanged"}, {"measurement": "Cmax increase in individual subjects, up to", "setting": "[3]; 240 mL of 40% ethanol", "value": "up to 270%"}, {"measurement": "AUC change with ethanol", "setting": "[3]; 240 mL of 40% ethanol concomitantly", "value": "not statistically significantly changed"}, {"measurement": "Cmax increase (average) vs 0% ethanol", "setting": "[3]; 240 mL of 40% ethanol, excluding subjects who vomited", "value": 70, "unit": "%"}, {"measurement": "increase in Cmax", "setting": "[4]; [5]", "value": "about 1.5 fold"}, {"measurement": "increase in bioavailability", "setting": "[4]; [5]", "value": "about 1.4 fold"}, {"measurement": "bioavailability", "setting": "[4]; hepatically impaired patients", "value": "increased"}, {"measurement": "bioavailability", "setting": "[4]; renally impaired patients", "value": "increased"}]}
